What was measured:
Format in all cases: in vivo
Nilaparvata lugens = Nilaparvata lugens spray test (NILALU); conditions: 4 g/ha, 4 dat
Description: (§1) [table] To produce an appropriate active ingredient formulation, 1 part by weight of active ingredient is dissolved with the specified parts by weight of solvent and made up with water containing an emulsifier concentration of 1000 ppm until the desired concentration is attained. To produce further test concentrations, the mixture is diluted with emulsifier-containing water. If addition of ammonium salts or/and penetrants is required, these are each added to the preparation solution in a concentration of 1000 ppm. Rice plants (Oryza sativa) are sprayed with an active ingredient formulation of the desired concentration and then populated with larvae of the brown planthopper (Nilaparvata lugens). After the desired time, the efficacy in % is determined. 100% means that all planthoppers have been killed; 0% means that no planthoppers have been killed.

Meloidogyne incognita = Meloidogyne incognita test (MELGIN); conditions: 14 days (14 dat); for pest or weed control at 20 ppm: Meloidogyne incognita, 336 h, read-out: efficacy (nematicidal, gall formation)
Description: [table] To produce a suitable active ingredient formulation, 1 part by weight of active ingredient is mixed with the stated amount of solvent and the concentrate is diluted to the desired concentration with water. Vessels are filled with sand, active ingredient solution, an egg/larvae suspension of the southern root-knot nematode (Meloidogyne incognita) and lettuce seeds. The lettuce seeds germinate and the plants develop. The galls develop on the roots. After 14 days, the nematicidal efficacy in % is determined by the formation of galls. 100% means that no galls were found; 0% means that the number of galls on the treated plants corresponds to the untreated control. [table] To produce an appropriate active ingredient formulation, 1 part by weight of active ingredient is mixed with the specified amount of solvent and the concentrate is diluted to the desired concentration with water. Vessels are filled with sand, active ingredient solution, an egg/larvae suspension of the southern root-knot nematode (Meloidogyne incognita) and lettuce seeds. The lettuce seeds germinate and the plants develop. The root-knots develop on the roots. After the desired time, the nematicidal effect is determined from the formation of root-knots in %. 100% means that no root-knots were found; 0% means that the number of root-knots on the treated plants corresponds to that on the untreated control.

Myzus persicae [1] = test: Myzus persicae spray test (MYZUPE), Chinese cabbage leaf discs; conditions: for pest or weed control at 20 g/ha / pest or weed control at 100 g/ha: Myzus persicae, foliar, 120 h, 5 days (5 dat), read-out: efficacy
Description: (§2) [table] To produce a suitable active ingredient formulation, 1 part by weight of active ingredient is dissolved with the specified parts by weight of solvent and made up to the desired concentration with water containing an emulsifier concentration of 1000 ppm. To produce further test concentrations, the formulation is diluted with emulsifier-containing water. Discs of Chinese cabbage leaves (Brassica pekinensis) infested by all stages of the green peach aphid (Myzus persicae) are sprayed with an active ingredient formulation of the desired concentration. After 5 days, the efficacy in % is determined. 100% means that all the aphids have been killed; 0% means that no aphids have been killed. [table] To produce an appropriate active ingredient formulation, 1 part by weight of active ingredient is dissolved with the stated parts by weight of solvent and made up with water containing an emulsifier concentration of 1000 ppm until the desired concentration is attained. For production of further test concentrations, the mixture is diluted with emulsifier-containing water. Discs of chinese cabbage leaves (Brassica pekinensis) infested by all stages of the green peach aphid (Myzus persicae) are sprayed with an active ingredient formulation of the desired concentration. After the desired time, the efficacy in % is determined. 100% means that all aphids have been killed; 0% means that no aphids have been killed.

Phaedon cochleariae = Phaedon cochleariae spray test (PHAECO), Chinese cabbage leaf discs; design: key to repellent effect flag: REP = repellent effect; conditions: for pest or weed control at 100 g/ha: read-out: efficacy
Description: as §2, with “pekinensis)” for “pekinensis) infested by all stages of the green peach aphid (Myzus persicae)”, “concentration and, after drying, populated with larvae of the mustard beetle (Phaedon cochleariae).” for “concentration.”, “7” for “5”, “beetle larvae” for “aphids”

Aphis gossypii = Aphis gossypii spray test (APHIGO), cotton plants; conditions: 6 dat; for Emax at 0.8 ppm: Aphis gossypii, 144 h, read-out: % efficacy
Description: as §1, with “Cotton” for “Rice”, “(Gossypium hirsutum) severely infested by the cotton aphid (Aphis gossypii)” for “(Oryza sativa)”, “concentration.” for “concentration and then populated with larvae of the brown planthopper (Nilaparvata lugens).”, “kill” for “efficacy”, “aphids” for “planthoppers”

Myzus persicae [2] = test: Myzus persicae oral test; conditions: 120 h, after 5 days, read-out: efficacy
Description: [table] To produce a suitable active ingredient formulation, 1 part by weight of active ingredient is dissolved with the stated parts by weight of solvent and made up to the desired concentration with water. 50 μl of the active ingredient preparation are transferred into microtitre plates and made up to a final volume of 200 μl with 150 μl of IPL41 insect medium (33%+15% sugar). Subsequently, the plates are sealed with parafilm, which a mixed population of green peach aphids (Myzus persicae) within a second microtitre plate is able to puncture and imbibe the solution. After 5 days, the efficacy in % is determined. 100% means that all the aphids have been killed; 0% means that no aphids have been killed.

Myzus persicae [3] = test: Myzus persicae spray test (MYZUPE S), bell pepper plants; conditions: 144 h, 0.8 ppm, 6 dat, read-out: % efficacy
Description: [table] To produce an appropriate active ingredient formulation, 1 part by weight of active ingredient is dissolved with the specified parts by weight of solvent and made up with water containing an emulsifier concentration of 1000 ppm until the desired concentration is attained. To produce further test concentrations, the mixture is diluted with emulsifier-containing water. If addition of ammonium salts or/and penetrants is required, these are each added to the preparation solution in a concentration of 1000 ppm. Bell pepper plants (Capsicum annuum) severely infested by the green peach aphid (Myzus persicae) are treated by spraying with the active ingredient formulation in the desired concentration. After the desired time, the kill in % is determined. 100% means that all the animals have been killed; 0% means that no animals have been killed.

Lucilia cuprina = Lucilia cuprina test; conditions: 48 h, L1 larvae, after 2 days, read-out: efficacy (kill)
Description: Solvent: dimethyl sulfoxide To produce a suitable active ingredient formulation, 10 mg of active ingredient are mixed with 0.5 ml of dimethyl sulfoxide, and the concentrate is diluted with water to the desired concentration. About 20 L1 larvae of the Australian sheep blowfly (Lucilia cuprina) are transferred into a test vessel containing minced horsemeat and the active ingredient formulation of the desired concentration. After 2 days, the kill in % is determined. 100% means that all the larvae have been killed; 0% means that no larvae have been killed.

Nezara viridula = Nezara viridula spray test (NEZARA / NEZAVI); conditions: Nezara viridula, 96 h, 4 dat, read-out: % efficacy
Description: as §1, with “Barley” for “Rice”, “(Hordeum vulgare) infected with larvae of the southern green shield bug (Nezara viridula)” for “(Oryza sativa)”, “concentration.” for “concentration and then populated with larvae of the brown planthopper (Nilaparvata lugens).”, “bugs” for “planthoppers”

[4] = Phaedon cochleariae, foliar, 168 h, 100 g/ha, 7 days (7 dat)
[5] = Phaedon cochleariae, foliar, 168 h, PHAECO, 20 g/ha, 7 dat
[6] = Phaedon cochleariae, foliar, 168 h, PHAECO, 20 g/ha, 7 dat, read-out: % efficacy

## CCS(=O)(=O)c1ccc(C(=O)NC)nc1-c1nc2cc(C(F)(F)C(F)(F)F)nnc2n1C [Ex. I-39 from WO2017/025419, reference compound]
Nilaparvata lugens
  % efficacy: 0%
Meloidogyne incognita; 20 ppm
  efficacy (nematicidal, gall formation): 0%
Myzus persicae [1]; MYZUPE, 4 g/ha, 5 dat
  % efficacy: 0%
Phaedon cochleariae; 100 g/ha, 7 days (7 dat)
  efficacy: 0%
Phaedon cochleariae; PHAECO, 20 g/ha, 7 dat
  % efficacy: 0%
Aphis gossypii; 0.8 ppm
  % efficacy: 0%
Aphis gossypii; 4 ppm
  % efficacy: 55%

## CCS(=O)(=O)c1ccc(C(=O)N(C)C)nc1-c1nc2cc(C(F)(F)C(F)(F)F)nnc2n1C [Example I-05]
Myzus persicae [2]
  pest or weed control at 0.8 ppm: 100%
Myzus persicae [1]
  pest or weed control at 20 g/ha: 90%
  pest or weed control at 100 g/ha: 90%
Phaedon cochleariae; [4]
  pest or weed control at 100 g/ha: 100%
Myzus persicae [3]
  Emax at 0.8 ppm: 95%
Aphis gossypii; 0.8 ppm
  Emax at 0.8 ppm: 65%
Lucilia cuprina
  pest or weed control at 100 ppm: 100%

## CNC(=O)c1ccc(S(C)(=O)=O)c(-c2nc3cc(C(F)(F)C(F)(F)F)nnc3n2C)n1 [Example I-06]
Myzus persicae [2]
  pest or weed control at 0.8 ppm: 100%
Myzus persicae [1]
  pest or weed control at 20 g/ha: 70%
  pest or weed control at 100 g/ha: 90%
Phaedon cochleariae; [4]
  pest or weed control at 100 g/ha: 67%
Lucilia cuprina
  pest or weed control at 100 ppm: 95%

## Cn1c(-c2nc(C(=O)NC3CC3)ccc2S(C)(=O)=O)nc2cc(C(F)(F)C(F)(F)F)nnc21 [Example I-07]
Myzus persicae [2]
  pest or weed control at 0.8 ppm: 90%
Phaedon cochleariae; PHAECO, 20 g/ha, 7 dat
  repellent effect flag: REP
Phaedon cochleariae; [4]
  pest or weed control at 100 g/ha: 100%
Phaedon cochleariae; [5]
  percent efficacy (larval mortality) at a fixed application rate at 20 g/ha: 100%

## CCNC(=O)c1ccc(S(C)(=O)=O)c(-c2nc3cc(C(F)(F)C(F)(F)F)nnc3n2C)n1 [Example I-14]
Myzus persicae [2]
  pest or weed control at 0.8 ppm: 90%
Phaedon cochleariae; [4]
  pest or weed control at 100 g/ha: 100%
Phaedon cochleariae; [6]
  Emax at 20 g/ha: 83%
Lucilia cuprina
  pest or weed control at 100 ppm: 90%

## CCS(=O)(=O)c1ccc(N(C)C(=O)N(C)C)nc1-c1nc2cc(C(F)(F)C(F)(F)F)nnc2n1C [Example I-15]
Nezara viridula
  Emax at 0.8 g/ha: 80%
  Emax at 4 g/ha: 100%
Meloidogyne incognita
  pest or weed control at 20 ppm: 90%
Myzus persicae [2]
  pest or weed control at 0.8 ppm: 100%
Myzus persicae [1]
  pest or weed control at 20 g/ha: 90%
  pest or weed control at 100 g/ha: 100%
Phaedon cochleariae; [4]
  pest or weed control at 100 g/ha: 100%
Phaedon cochleariae; [6]
  Emax at 20 g/ha: 83%

## CCS(=O)(=O)c1ccc(C(=O)N(C)C)nc1-c1nc2cc(C(F)(F)F)nnc2n1C [reference compound]
Phaedon cochleariae; [4]
  pest or weed control at 100 g/ha: 33%
Myzus persicae [3]
  Emax at 0.8 ppm: 50%
Aphis gossypii; 0.8 ppm
  Emax at 0.8 ppm: 0%

## CNC(=O)c1ccc(S(C)(=O)=O)c(-c2nc3cc(C(F)(F)F)nnc3n2C)n1 [reference compound]
Myzus persicae [1]
  pest or weed control at 20 g/ha: 0%
  pest or weed control at 100 g/ha: 0%
Phaedon cochleariae; [4]
  pest or weed control at 100 g/ha: 0%

## Cn1c(-c2nc(C(=O)NC3CC3)ccc2S(C)(=O)=O)nc2cc(C(F)(F)F)nnc21 [reference compound]
Phaedon cochleariae; [4]
  pest or weed control at 100 g/ha: 50%
Phaedon cochleariae; [6]
  Emax at 20 g/ha: 0%

## CN(C)C(=O)Nc1ccc(S(C)(=O)=O)c(-c2nc3cc(C(F)(F)F)nnc3n2C)n1 [reference compound]
Meloidogyne incognita
  pest or weed control at 20 ppm: 0%
Myzus persicae [1]
  pest or weed control at 20 g/ha: 0%
  pest or weed control at 100 g/ha: 0%
Phaedon cochleariae; [4]
  pest or weed control at 100 g/ha: 0%
Phaedon cochleariae; [5]
  percent efficacy (larval mortality) at a fixed application rate at 20 g/ha: 0%

## CCNC(=O)Nc1ccc(S(=O)(=O)CC)c(-c2nc3cc(C(F)(F)F)nnc3n2C)n1 [reference compound]
Nezara viridula
  Emax at 4 g/ha: 0%
Phaedon cochleariae; [4]
  pest or weed control at 100 g/ha: 50%
Phaedon cochleariae; Phaedon cochleariae, foliar, 168 h, PHAECO, 4 g/ha, 7 dat, read-out: % efficacy
  Emax at 4 g/ha: 0%
Phaedon cochleariae; [6]
  Emax at 20 g/ha: 67%

## CCNC(=O)c1ccc(S(C)(=O)=O)c(-c2nc3cc(C(F)(F)F)nnc3n2C)n1 [reference compound]
Phaedon cochleariae; [4]
  pest or weed control at 100 g/ha: 0%
Phaedon cochleariae; [5]
  percent efficacy (larval mortality) at a fixed application rate at 20 g/ha: 0%

## CCS(=O)(=O)c1ccc(N(C)C(=O)N(C)C)nc1-c1nc2cc(C(F)(F)F)nnc2n1C [reference compound]
Nezara viridula
  Emax at 0.8 g/ha: 0%
  Emax at 4 g/ha: 50%
Phaedon cochleariae; [4]
  pest or weed control at 100 g/ha: 0%
Phaedon cochleariae; [5]
  percent efficacy (larval mortality) at a fixed application rate at 20 g/ha: 0%
